Reference: publication PMC5218480 (PLoS ONE, 2017)

Tested on: MV-4-11 cells
Assay: Gene expression microarray analysis (Affymetrix PrimeView) and GSEA
Type: cell-based, human
Parameters: RFU PODN (11730768_x_at) / Fold change /veh PODN (11730768_x_at) / RFU LINC00158 (11744669_a_at) / Fold change /veh LINC00158 (11744669_a_at) / RFU DUSP10 (11751237_a_at) / Fold change /veh DUSP10 (11751237_a_at) / RFU ID3 (11757404_x_at) / Fold change /veh ID3 (11757404_x_at) / RFU PLEKHG5 (11737974_s_at) / Fold change /veh PLEKHG5 (11737974_s_at) / RFU LRRC4B (11730491_at) / Fold change /veh LRRC4B (11730491_at) / RFU GIMAP4 (11747438_a_at) / Fold change /veh GIMAP4 (11747438_a_at) / RFU KRT8 (11758183_x_at) / Fold change /veh KRT8 (11758183_x_at) / RFU CNN1 (11734310_a_at) / Fold change /veh CNN1 (11734310_a_at) / RFU VPS37D (11726825_at) / Fold change /veh VPS37D (11726825_at) / RFU C10orf10 (11716522_x_at) / Fold change /veh C10orf10 (11716522_x_at) / RFU KIR2DL2 /// KIR2DL4 /// KIR2DL5A /// KIR2DL5B /// KIR2DS1 /// KIR2DS2 /// KIR2DS3 /// KIR2DS4 /// KIR3DL3 /// KIR3DL3 /// KIR3DS1 (11738374_at) / Fold change /veh KIR2DL2 /// KIR2DL4 /// KIR2DL5A /// KIR2DL5B /// KIR2DS1 /// KIR2DS2 /// KIR2DS3 /// KIR2DS4 /// KIR3DL3 /// KIR3DL3 /// KIR3DS1 (11738374_at) / RFU C1QL1 (11718748_at) / Fold change /veh C1QL1 (11718748_at) / RFU TMPRSS4 (11747572_a_at) / Fold change /veh TMPRSS4 (11747572_a_at) / RFU HAMP (11756126_x_at) / Fold change /veh HAMP (11756126_x_at) / RFU RNFT2 (11725882_a_at) / Fold change /veh RNFT2 (11725882_a_at) / RFU NR4A2 (11747474_a_at) / Fold change /veh NR4A2 (11747474_a_at) / RFU ABCC12 (11746883_a_at) / Fold change /veh ABCC12 (11746883_a_at) / RFU TMEM136 (11760407_x_at) / Fold change /veh TMEM136 (11760407_x_at) / RFU CLDN22 /// WWC2 (11732394_at) / Fold change /veh CLDN22 /// WWC2 (11732394_at) / RFU HLA-DPB1 (11760878_x_at) / Fold change /veh HLA-DPB1 (11760878_x_at) / RFU SPINT1 (11716480_a_at) / Fold change /veh SPINT1 (11716480_a_at) / RFU GAP43 (11754022_s_at) / Fold change /veh GAP43 (11754022_s_at) / RFU A4GNT (11735810_at) / Fold change /veh A4GNT (11735810_at) / RFU PRB3 (11715151_x_at) / Fold change /veh PRB3 (11715151_x_at) / RFU TUBB4B (11761932_at) / Fold change /veh TUBB4B (11761932_at) / RFU CAPN14 (11732068_a_at) / Fold change /veh CAPN14 (11732068_a_at) / RFU TMCC2 (11721928_a_at) / Fold change /veh TMCC2 (11721928_a_at) / RFU IRGQ (11745062_a_at) / Fold change /veh IRGQ (11745062_a_at) / RFU FAM174B (11720279_a_at) / Fold change /veh FAM174B (11720279_a_at) / RFU TMPRSS4 (11748680_a_at) / Fold change /veh TMPRSS4 (11748680_a_at) / RFU FAM212B (11763350_a_at) / Fold change /veh FAM212B (11763350_a_at) / RFU PLEKHG5 (11743358_a_at) / Fold change /veh PLEKHG5 (11743358_a_at) / RFU ZSCAN30 (11745921_a_at) / Fold change /veh ZSCAN30 (11745921_a_at) / RFU CMKLR1 (11741424_a_at) / Fold change /veh CMKLR1 (11741424_a_at) / RFU LOC101060620 /// MAPK8IP1 (11723275_at) / Fold change /veh LOC101060620 /// MAPK8IP1 (11723275_at) / RFU SPTSSB (11747773_x_at) / Fold change /veh SPTSSB (11747773_x_at) / RFU PRSS12 (11739890_at) / Fold change /veh PRSS12 (11739890_at) / RFU BIN1 (11741810_x_at) / Fold change /veh BIN1 (11741810_x_at) / RFU WNT11 (11732464_a_at) / Fold change /veh WNT11 (11732464_a_at) / RFU C10orf10 (11716521_a_at) / Fold change /veh C10orf10 (11716521_a_at) / RFU C5orf56 (11738089_at) / Fold change /veh C5orf56 (11738089_at) / RFU CYB561 (11721691_x_at) / Fold change /veh CYB561 (11721691_x_at) / RFU ANKRD19P (11752326_a_at) / Fold change /veh ANKRD19P (11752326_a_at) / RFU OR2T12 /// OR2T33 /// OR2T8 (11738714_s_at) / Fold change /veh OR2T12 /// OR2T33 /// OR2T8 (11738714_s_at) / RFU VCAN (11748164_a_at) / Fold change /veh VCAN (11748164_a_at) / RFU JSRP1 (11732532_at) / Fold change /veh JSRP1 (11732532_at) / RFU KRTAP10-11 (11738290_x_at) / Fold change /veh KRTAP10-11 (11738290_x_at) / RFU MYO3A (11730013_a_at) / Fold change /veh MYO3A (11730013_a_at) / RFU EBF3 (11725865_a_at) / Fold change /veh EBF3 (11725865_a_at) / RFU CAMK2N1 (11719241_x_at) / Fold change /veh CAMK2N1 (11719241_x_at) / RFU C5orf56 (11738088_a_at) / Fold change /veh C5orf56 (11738088_a_at) / RFU OLFML3 (11715873_a_at) / Fold change /veh OLFML3 (11715873_a_at) / RFU LOC100653217 /// NTM (11731650_a_at) / Fold change /veh LOC100653217 /// NTM (11731650_a_at) / RFU MAPK11 (11762145_a_at) / Fold change /veh MAPK11 (11762145_a_at) / RFU FIZ1 (11724087_x_at) / Fold change /veh FIZ1 (11724087_x_at) / RFU OASL (11726364_x_at) / Fold change /veh OASL (11726364_x_at) / RFU SOX15 (11748057_x_at) / Fold change /veh SOX15 (11748057_x_at) / RFU CD79A (11719716_a_at) / Fold change /veh CD79A (11719716_a_at) / RFU HIST1H1D (11736915_at) / Fold change /veh HIST1H1D (11736915_at) / RFU CASKIN2 (11723855_a_at) / Fold change /veh CASKIN2 (11723855_a_at) / RFU LOC730098 (11760151_x_at) / Fold change /veh LOC730098 (11760151_x_at) / RFU OR4N2 (11742367_at) / Fold change /veh OR4N2 (11742367_at) / RFU PRRT2 (11749266_a_at) / Fold change /veh PRRT2 (11749266_a_at) / RFU SNX32 (11753110_a_at) / Fold change /veh SNX32 (11753110_a_at) / RFU CDHR5 (11726645_a_at) / Fold change /veh CDHR5 (11726645_a_at) / RFU RCAN1 (11760418_a_at) / Fold change /veh RCAN1 (11760418_a_at) / RFU FAM167A (11723789_a_at) / Fold change /veh FAM167A (11723789_a_at) / RFU FAM26E (11764081_at) / Fold change /veh FAM26E (11764081_at) / RFU ISYNA1 (11749810_s_at) / Fold change /veh ISYNA1 (11749810_s_at) / RFU ACY1 (11761880_at) / Fold change /veh ACY1 (11761880_at) / RFU 11764098_at / Fold change /veh 11764098_at / RFU SAMD14 (11745864_x_at) / Fold change /veh SAMD14 (11745864_x_at) / RFU NPB (11741838_a_at) / Fold change /veh NPB (11741838_a_at) / RFU TMPRSS6 (11731388_a_at) / Fold change /veh TMPRSS6 (11731388_a_at) / RFU KRTAP10-2 (11738614_at) / Fold change /veh KRTAP10-2 (11738614_at) / RFU ARHGAP8 /// PRR5-ARHGAP8 (11727945_x_at) / Fold change /veh ARHGAP8 /// PRR5-ARHGAP8 (11727945_x_at) / RFU KRTAP5-7 /// NADSYN1 (11734609_at) / Fold change /veh KRTAP5-7 /// NADSYN1 (11734609_at) / RFU RASL12 (11751679_a_at) / Fold change /veh RASL12 (11751679_a_at) / RFU CDKN2B (11736163_a_at) / Fold change /veh CDKN2B (11736163_a_at) / RFU PRF1 (11729649_at) / Fold change /veh PRF1 (11729649_at) / RFU, ZNF638 /// ZNF638-IT1 / Fold change vs veh, ZNF638 /// ZNF638-IT1 / RFU, PANK3 / Fold change vs veh, PANK3 / RFU, SH3YL1 / Fold change vs veh, SH3YL1 / RFU, ZEB2 / Fold change vs veh, ZEB2 / RFU, NRIP1 / Fold change vs veh, NRIP1 / RFU, PTTG1IP / Fold change vs veh, PTTG1IP / RFU, CAPN2 / Fold change vs veh, CAPN2 / RFU, MED14 / Fold change vs veh, MED14 / RFU, SNORA58 / Fold change vs veh, SNORA58 / RFU, C1orf63 / Fold change vs veh, C1orf63 / RFU, LRRFIP1 / Fold change vs veh, LRRFIP1 / RFU, NDUFAF7 / Fold change vs veh, NDUFAF7 / RFU, SLC12A2 / Fold change vs veh, SLC12A2 / RFU, IBTK / Fold change vs veh, IBTK / RFU, ESF1 / Fold change vs veh, ESF1 / Fold change vs veh, TMEM50B / RFU, TAOK1 / Fold change vs veh, TAOK1 / RFU, ACBD3 / Fold change vs veh, ACBD3 / RFU, TMA16 / Fold change vs veh, TMA16 / RFU, RWDD3 / Fold change vs veh, RWDD3 / RFU, BCAT1 / Fold change vs veh, BCAT1 / RFU, EDEM3 / Fold change vs veh, EDEM3 / RFU, TMEM33 / Fold change vs veh, TMEM33 / RFU, WDR75 / Fold change vs veh, WDR75 / RFU, AHCTF1 / Fold change vs veh, AHCTF1 / RFU, TFRC / Fold change vs veh, TFRC / RFU, ZDHHC17 / Fold change vs veh, ZDHHC17 / RFU, NOM1 / Fold change vs veh, NOM1 / RFU, ARL8B / Fold change vs veh, ARL8B / RFU, ZBTB11 / Fold change vs veh, ZBTB11 / RFU, TAMM41 / Fold change vs veh, TAMM41 / RFU, KIAA1704 /// LOC100996395 / Fold change vs veh, KIAA1704 /// LOC100996395 / RFU, ING1 / Fold change vs veh, ING1 / RFU, TRMT61B / Fold change vs veh, TRMT61B / RFU, FUBP3 / Fold change vs veh, FUBP3 / RFU, TP53 / Fold change vs veh, TP53 / RFU, TNKS2 / Fold change vs veh, TNKS2 / RFU, ZFP14 / Fold change vs veh, ZFP14 / RFU, ACTR2 / Fold change vs veh, ACTR2 / RFU, PPP3R1 / Fold change vs veh, PPP3R1 / RFU, PIK3R1 / Fold change vs veh, PIK3R1 / RFU, HNRNPA1 / Fold change vs veh, HNRNPA1 / RFU, RNF170 / Fold change vs veh, RNF170 / RFU, ZNF28 / Fold change vs veh, ZNF28 / RFU, RNGTT / Fold change vs veh, RNGTT / RFU, OGT / Fold change vs veh, OGT / RFU, BRD1 / Fold change vs veh, BRD1 / RFU, MARS / Fold change vs veh, MARS / RFU, ZNF655 / Fold change vs veh, ZNF655 / RFU, FAHD1 / Fold change vs veh, FAHD1 / RFU, BDP1 / Fold change vs veh, BDP1 / RFU, LRRCC1 / Fold change vs veh, LRRCC1 / RFU, ARID1A / Fold change vs veh, ARID1A / RFU, ZNF146 / Fold change vs veh, ZNF146 / RFU, ZNF330 / Fold change vs veh, ZNF330 / RFU, GPN3 / Fold change vs veh, GPN3 / RFU, C9orf123 / Fold change vs veh, C9orf123 / RFU, N4BP2L2 / Fold change vs veh, N4BP2L2 / RFU, ARFIP1 / Fold change vs veh, ARFIP1 / RFU, FAM179B / Fold change vs veh, FAM179B / RFU, BCL10 / Fold change vs veh, BCL10 / RFU, UHRF1BP1L / Fold change vs veh, UHRF1BP1L / RFU, BET1 / Fold change vs veh, BET1 / RFU, CNOT2 / Fold change vs veh, CNOT2 / RFU, ZNF268 / Fold change vs veh, ZNF268 / Fold change vs veh, ZNF507 / RFU, DGCR2 / Fold change vs veh, DGCR2 / RFU, WDSUB1 / Fold change vs veh, WDSUB1 / Fold change vs veh, HSP90B1 /// MIR3652 / RFU, ADSS / Fold change vs veh, ADSS / RFU, GK / Fold change vs veh, GK / RFU, ZNF148 / Fold change vs veh, ZNF148 / RFU, TAF9 / Fold change vs veh, TAF9 / RFU, SLC1A5 / Fold change vs veh, SLC1A5 / RFU, SLMO2 / Fold change vs veh, SLMO2 / RFU, ABCC4 / Fold change vs veh, ABCC4 / RFU, LOC101060439 /// RAP1B / Fold change vs veh, LOC101060439 /// RAP1B / RFU, RFX7 / Fold change vs veh, RFX7 / RFU, GTPBP10 / Fold change vs veh, GTPBP10 / RFU, CNEP1R1 / Fold change vs veh, CNEP1R1 / RFU, BIVM-ERCC5 /// ERCC5 / Fold change vs veh, BIVM-ERCC5 /// ERCC5 / RFU, ILF3 / Fold change vs veh, ILF3 / RFU 11762660_at / Fold change /veh 11762660_at / RFU VCAN (11757783_s_at) / Fold change /veh VCAN (11757783_s_at) / RFU DDX43 (11728927_at) / Fold change /veh DDX43 (11728927_at) / RFU KRT8 (11758188_x_at) / Fold change /veh KRT8 (11758188_x_at) / RFU NKD1 (11759106_at) / Fold change /veh NKD1 (11759106_at) / RFU SRD5A1 (11742802_a_at) / Fold change /veh SRD5A1 (11742802_a_at) / RFU TPSAB1 /// TPSB2 (11721975_s_at) / Fold change /veh TPSAB1 /// TPSB2 (11721975_s_at) / RFU GSTM3 (11746129_a_at) / Fold change /veh GSTM3 (11746129_a_at) / RFU IL23R (11737362_x_at) / Fold change /veh IL23R (11737362_x_at) / RFU TMEM51 (11727254_a_at) / Fold change /veh TMEM51 (11727254_a_at) / RFU PIWIL2 (11732686_x_at) / Fold change /veh PIWIL2 (11732686_x_at) / RFU ORM1 (11744905_x_at) / Fold change /veh ORM1 (11744905_x_at) / RFU CCDC152 (11743942_at) / Fold change /veh CCDC152 (11743942_at) / RFU ECM1 (11717891_a_at) / Fold change /veh ECM1 (11717891_a_at) / RFU IL23R (11748794_a_at) / Fold change /veh IL23R (11748794_a_at) / RFU TNFAIP8L3 (11732012_x_at) / Fold change /veh TNFAIP8L3 (11732012_x_at) / RFU MBOAT4 (11741988_at) / Fold change /veh MBOAT4 (11741988_at) / RFU 11764193_at / Fold change /veh 11764193_at / RFU TMEM53 (11763286_at) / Fold change /veh TMEM53 (11763286_at) / RFU MAGEB2 (11727129_at) / Fold change /veh MAGEB2 (11727129_at) / RFU TMEM200A (11744735_a_at) / Fold change /veh TMEM200A (11744735_a_at) / RFU CCDC152 (11751479_a_at) / Fold change /veh CCDC152 (11751479_a_at) / RFU FAM211A (11726209_a_at) / Fold change /veh FAM211A (11726209_a_at) / RFU RGS16 (11746705_a_at) / Fold change /veh RGS16 (11746705_a_at) / RFU VCAN (11755009_s_at) / Fold change /veh VCAN (11755009_s_at) / RFU RHOB (11743442_s_at) / Fold change /veh RHOB (11743442_s_at) / RFU RGS16 (11720943_a_at) / Fold change /veh RGS16 (11720943_a_at) / RFU RGS16 (11720944_at) / Fold change /veh RGS16 (11720944_at) / RFU, VPS4B / Fold change vs veh, VPS4B / RFU, CREB1 / Fold change vs veh, CREB1 / RFU, DNAJC13 / Fold change vs veh, DNAJC13 / RFU, GNAQ / Fold change vs veh, GNAQ / RFU, CDK5R1 / Fold change vs veh, CDK5R1 / RFU, ZRANB3 / Fold change vs veh, ZRANB3 / RFU, CUL4A / Fold change vs veh, CUL4A / RFU, CCNY / Fold change vs veh, CCNY / RFU, UFL1 / Fold change vs veh, UFL1 / RFU, COG3 / Fold change vs veh, COG3 / RFU, DIAPH2 / Fold change vs veh, DIAPH2 / RFU, SKA2 / Fold change vs veh, SKA2 / RFU, AFF3 / Fold change vs veh, AFF3 / RFU, LMF1 / Fold change vs veh, LMF1 / RFU, IPO11 / Fold change vs veh, IPO11 / RFU, DFFB / Fold change vs veh, DFFB / RFU, FOXP1 / Fold change vs veh, FOXP1 / RFU, CARD8 / Fold change vs veh, CARD8 / RFU, STRN3 / Fold change vs veh, STRN3 / RFU, ADK / Fold change vs veh, ADK / RFU, RASSF2 / Fold change vs veh, RASSF2 / RFU, WIPF1 / Fold change vs veh, WIPF1 / RFU, LARP1B / Fold change vs veh, LARP1B / RFU, RASA1 / Fold change vs veh, RASA1 / RFU, RB1 / Fold change vs veh, RB1 / RFU, PPFIA1 / Fold change vs veh, PPFIA1 / RFU, MAT2A / Fold change vs veh, MAT2A / RFU, CCT5 / Fold change vs veh, CCT5 / RFU, WDR92 / Fold change vs veh, WDR92 / RFU, CUX1 / Fold change vs veh, CUX1 / RFU, TTC7A / Fold change vs veh, TTC7A / RFU, TMEM135 / Fold change vs veh, TMEM135 / RFU, DEPTOR / Fold change vs veh, DEPTOR / RFU, CPM / Fold change vs veh, CPM / RFU, DNAJB6 / Fold change vs veh, DNAJB6 / RFU, CACNA2D3 / Fold change vs veh, CACNA2D3 / RFU, DTX4 / Fold change vs veh, DTX4 / RFU, TFCP2 / Fold change vs veh, TFCP2 / RFU, GMCL1 /// GMCL1P1 / Fold change vs veh, GMCL1 /// GMCL1P1 / RFU, AEBP2 / Fold change vs veh, AEBP2 / RFU, SNHG1 /// SNORD22 /// SNORD25 /// SNORD26 /// SNORD27 /// SNORD28 /// SNORD29 /// SNORD31 / Fold change vs veh, SNHG1 /// SNORD22 /// SNORD25 /// SNORD26 /// SNORD27 /// SNORD28 /// SNORD29 /// SNORD31 / Fold change (Aza/veh), C12orf56 (ProbeSet 11735607_a_at) / Fold change (ACY-1035/veh), C12orf56 (ProbeSet 11735607_a_at) / Fold change (Aza/veh), FGFR1OP (ProbeSet 11751329_s_at) / Fold change (ACY-1035/veh), FGFR1OP (ProbeSet 11751329_s_at) / Fold change (Aza/veh), VPS36 (ProbeSet 11739960_a_at) / Fold change (ACY-1035/veh), VPS36 (ProbeSet 11739960_a_at) / RFU SYPL1 (11715823_x_at) / Fold change /veh SYPL1 (11715823_x_at) / RFU IGFBP7 (11715501_s_at) / Fold change /veh IGFBP7 (11715501_s_at) / RFU REEP3 (11722064_at) / Fold change /veh REEP3 (11722064_at) / RFU IGLL1 (11728026_x_at) / Fold change /veh IGLL1 (11728026_x_at): dose or concentration left out as unconfirmed
Conditions: ProbeSet 11758919_x_at; LIST D

With `Nc1ncn([C@@H]2O[C@H](CO)[C@@H](O)[C@H]2O)c(=O)n1` [azacitidine] the “RFU, TFCP2” value was 66.08 RFU.
